Here are results for nine compounds from PubChem BioAssay (NCI).

Among the test systems are SNB-19 CNS; UO-31 renal; NCI-H23 lung; PC-3 prostate; TK-10 renal; DU-145 prostate; MDA-MB-435; SK-OV-3 ovarian; NCI-H460 lung; ACHN renal; LOX IMVI melanoma; RXF 393 renal; NCI-H226 lung; OVCAR-8 ovarian; SK-MEL-28 melanoma.
What all share (experiment): NCI tumour cell line growth inhibition, 48 h

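Cells were grown in 96-well plates and exposed to each compound for 48 hours at five concentrations; endpoints were interpolated linearly between bracketing concentrations, or set to the highest concentration if not reached. TGI: concentration producing complete growth inhibition.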

Take `Brc1ccc(C2(N3CCCCC3)CCCCC2)s1`: the TGI with SNB-19 CNS, with UO-31 renal, in the assay on NCI-H23 lung, in the assay with PC-3 prostate, with TK-10 renal and in the assay on DU-145 prostate was more than 100 µM each time. Besides, the TGI is 73.3 µM in the assay on MDA-MB-435; more than 100 µM with SK-OV-3 ovarian; 84.8 µM with NCI-H460 lung; more than 100 µM in the assay on ACHN renal; 29 µM with LOX IMVI melanoma; 33.3 µM with RXF 393 renal.
`N/C(=N/O)c1cn(C2OC(CO)C(O)C2O)c2ncnc(NO)c12` (stereo unspecified): the TGI with SNB-19 CNS is more than 100 µM; with NCI-H23 lung it was 2.29 µM; in the assay with PC-3 prostate it was 3.17 µM; with TK-10 renal, more than 33.6 µM; in the assay with NCI-H226 lung, 17.4 µM; in the assay on DU-145 prostate, more than 40 µM. Further, the TGI was 0.805 µM in the assay on MDA-MB-435; more than 100 µM with OVCAR-8 ovarian; more than 51.3 µM with SK-MEL-28 melanoma; 7.59 µM with NCI-H460 lung; 4.72 µM with ACHN renal; 4.53 µM in the assay on LOX IMVI melanoma. For the same compound, in the assay on RXF 393 renal, the TGI was 14.7 µM.
Consider `NC(=S)NS(=O)(=O)c1ccc(F)cc1`, for which the TGI in the assay on SNB-19 CNS, in the assay with NCI-H23 lung, with PC-3 prostate, in the assay on TK-10 renal, with NCI-H226 lung and with DU-145 prostate was more than 100 µM in each case. For the same compound, the TGI with MDA-MB-435, in the assay on SK-OV-3 ovarian, in the assay on OVCAR-8 ovarian, in the assay on SK-MEL-28 melanoma, in the assay with NCI-H460 lung and in the assay on ACHN renal was more than 100 µM in each case. Further, the TGI in the assay on LOX IMVI melanoma and in the assay on RXF 393 renal was more than 100 µM throughout.
Turning to `COc1cc([C@@H]2c3cc4c(cc3[C@@H](N=Cc3ccc(C(=O)O[C@H]5C[C@H]6OC[C@@]6(OC(C)=O)[C@H]6[C@H](OC(=O)c7ccccc7)[C@]7(O)C[C@H](OC(=O)[C@H](OC(=O)c8ccc(C=N[C@@H]9c%10cc%11c(cc%10[C@@H](c%10cc(OC)c(O)c(OC)c%10)[C@H]%10C(=O)OC[C@@H]%109)OCO%11)cc8)[C@@H](NC(=O)c8ccccc8)c8ccccc8)C(C)=C([C@@H](OC(C)=O)C(=O)[C@]56C)C7(C)C)cc3)C3COC(=O)C32)OCO4)cc(C)c1O` (stereo partly specified), the TGI is more than 50 µM in the assay on SNB-19 CNS; more than 50 µM with NCI-H23 lung; more than 27.5 µM with PC-3 prostate; more than 50 µM with TK-10 renal; more than 50 µM in the assay with NCI-H226 lung; more than 50 µM in the assay with DU-145 prostate. In addition, the TGI in the assay on MDA-MB-435 is 9.32 µM; in the assay on SK-OV-3 ovarian, more than 39.3 µM; in the assay on OVCAR-8 ovarian it was more than 50 µM; with SK-MEL-28 melanoma, more than 50 µM; with NCI-H460 lung, more than 50 µM; in the assay with ACHN renal, more than 50 µM. Further, the TGI with LOX IMVI melanoma and with RXF 393 renal was more than 50 µM each time.
Take `COc1cc(/C=C2\N=C(c3ccccc3)N(/N=C/c3cc4cc(C)ccc4nc3Cl)C2=O)ccc1O`: the TGI with SNB-19 CNS was more than 100 µM; with UO-31 renal it was more than 100 µM; in the assay on PC-3 prostate, 50.1 µM; with TK-10 renal, more than 100 µM; with DU-145 prostate, more than 100 µM; in the assay with MDA-MB-435 it was 36.7 µM. Besides, the TGI with SK-OV-3 ovarian, in the assay with OVCAR-8 ovarian, with SK-MEL-28 melanoma, in the assay with NCI-H460 lung, in the assay with ACHN renal and in the assay with LOX IMVI melanoma was more than 100 µM in each case. For the same compound, the TGI with RXF 393 renal was more than 100 µM.
Regarding `CC(C)(C)OC(=O)N1CCC[C@H]1CSC[C@@H]1CCCN1C(=O)OC(C)(C)C`, the TGI in the assay on SNB-19 CNS was more than 100 µM; with UO-31 renal, 74.9 µM; with NCI-H23 lung, 68.2 µM; with PC-3 prostate, 82.1 µM; in the assay on TK-10 renal, more than 100 µM; with DU-145 prostate, more than 100 µM. Moreover, the TGI in the assay on MDA-MB-435 was 46.7 µM; in the assay on SK-OV-3 ovarian, more than 100 µM; with OVCAR-8 ovarian, more than 100 µM; in the assay on SK-MEL-28 melanoma it was 60 µM; in the assay on NCI-H460 lung, more than 100 µM; in the assay on ACHN renal, 82.2 µM. The TGI was 35.2 µM in the assay with LOX IMVI melanoma and 69 µM in the assay with RXF 393 renal.
As to `CC(=O)NC1C(OCc2ccccc2)OC(CO)C(O)C1OCC(=O)NC(C)C(=O)NC(CCC(=O)Nc1ccc2c(c1)CN1C(=O)c3ccccc3C1=N2)C(N)=O` (stereo unspecified), the TGI in the assay with SNB-19 CNS, with UO-31 renal, in the assay on NCI-H23 lung, in the assay with PC-3 prostate, in the assay on TK-10 renal and in the assay on DU-145 prostate was more than 100 µM in each case. Moreover, the TGI in the assay on MDA-MB-435, with SK-OV-3 ovarian, with OVCAR-8 ovarian, with SK-MEL-28 melanoma, with NCI-H460 lung and with ACHN renal was more than 100 µM each time. In addition, the TGI in the assay with LOX IMVI melanoma and in the assay on RXF 393 renal was more than 100 µM throughout.
With `CC(C)=CCc1c(O)c(CC=C(C)C)c2oc3c(c(=O)c2c1O)C(C=C(C)C)Oc1cc(O)ccc1-3` (stereo unspecified), the TGI in the assay on SNB-19 CNS came out at 24.2 µM; in the assay on UO-31 renal, 15.7 µM; in the assay on NCI-H23 lung, 16.2 µM; in the assay on PC-3 prostate, 14.4 µM; in the assay on TK-10 renal it was 13.3 µM; in the assay on NCI-H226 lung it was 49.8 µM. Also, the TGI in the assay with DU-145 prostate is 24.3 µM; with MDA-MB-435, 13.7 µM; in the assay with SK-OV-3 ovarian it was 29 µM; with OVCAR-8 ovarian, 24.4 µM; in the assay on SK-MEL-28 melanoma, 21.5 µM; in the assay with NCI-H460 lung, 17 µM. Besides, the results for the TGI in the assay on ACHN renal and in the assay on LOX IMVI melanoma were 15.4 µM and 16 µM, respectively.
As for `OCC1OC(NC(=S)NCSCCC(F)(F)C(F)(F)C(F)(F)C(F)(F)C(F)(F)C(F)(F)F)C(O)C(O)C1O` (stereo unspecified), the TGI with SNB-19 CNS, with UO-31 renal, in the assay on NCI-H23 lung, with PC-3 prostate, in the assay on TK-10 renal and in the assay on DU-145 prostate was more than 100 µM each time. The TGI in the assay on MDA-MB-435, in the assay with SK-OV-3 ovarian, with SK-MEL-28 melanoma, in the assay with NCI-H460 lung, in the assay with ACHN renal and in the assay with LOX IMVI melanoma was more than 100 µM throughout. In the assay with RXF 393 renal, this compound had a TGI of more than 100 µM.
